Common to all, as to format: cell-based
Test [1] has as its target T1, fructose 1,6-bisphosphatase (FBPase-1) (Rattus norvegicus, UniProt P19112).
T1 construct: gene Fbp1; rat liver cytosolic fraction
T1 sequence (P19112 2-363): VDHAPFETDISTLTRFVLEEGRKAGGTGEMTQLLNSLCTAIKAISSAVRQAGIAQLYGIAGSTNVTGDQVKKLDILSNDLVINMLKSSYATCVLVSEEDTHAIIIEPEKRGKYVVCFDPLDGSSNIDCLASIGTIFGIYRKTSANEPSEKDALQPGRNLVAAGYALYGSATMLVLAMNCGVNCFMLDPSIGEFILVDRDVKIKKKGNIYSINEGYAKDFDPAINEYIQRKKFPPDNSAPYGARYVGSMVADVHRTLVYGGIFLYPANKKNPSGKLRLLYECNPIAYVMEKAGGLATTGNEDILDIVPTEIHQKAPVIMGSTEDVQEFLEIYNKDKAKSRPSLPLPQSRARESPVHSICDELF
Put plainly: phosphate release from fructose […],6-bisphosphate in rat liver cytosolic fraction; […] (incomplete) inhibition at […].

The target of test [2] is T2, phosphoenolpyruvate carboxykinase (PEPCK) (Rattus norvegicus, UniProt P07379).
T2 construct: gene Pck1; rat liver cytosolic fraction
T2 sequence (P07379 whole entry): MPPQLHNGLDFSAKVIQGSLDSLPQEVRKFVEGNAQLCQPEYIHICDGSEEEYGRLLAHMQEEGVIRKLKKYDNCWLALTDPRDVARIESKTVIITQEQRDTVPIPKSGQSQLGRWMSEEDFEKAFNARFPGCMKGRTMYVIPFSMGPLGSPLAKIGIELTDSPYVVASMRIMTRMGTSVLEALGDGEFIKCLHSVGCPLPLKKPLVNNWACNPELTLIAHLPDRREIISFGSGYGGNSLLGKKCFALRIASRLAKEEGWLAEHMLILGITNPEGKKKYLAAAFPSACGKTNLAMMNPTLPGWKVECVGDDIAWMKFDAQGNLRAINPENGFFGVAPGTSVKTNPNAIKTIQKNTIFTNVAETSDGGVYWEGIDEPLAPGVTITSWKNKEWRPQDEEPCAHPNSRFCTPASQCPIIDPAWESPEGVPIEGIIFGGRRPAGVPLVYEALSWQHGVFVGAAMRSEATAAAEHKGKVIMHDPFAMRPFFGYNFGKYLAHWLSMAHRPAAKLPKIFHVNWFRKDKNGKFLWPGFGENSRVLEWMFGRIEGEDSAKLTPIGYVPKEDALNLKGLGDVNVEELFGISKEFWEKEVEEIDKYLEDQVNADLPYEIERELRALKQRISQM
The test is described as follows: enzyme activity in rat liver cytosolic fraction, coupled to malate dehydrogenase (NADH oxidation, […] nm); […] inhibition at […].

For test [3], the target named is T3, glucose 6-phosphatase (G6Pase) (Rattus norvegicus, UniProt P43428).
T3 construct: gene G6pc1; isolated rat liver microsomes
T3 sequence (P43428 1-357): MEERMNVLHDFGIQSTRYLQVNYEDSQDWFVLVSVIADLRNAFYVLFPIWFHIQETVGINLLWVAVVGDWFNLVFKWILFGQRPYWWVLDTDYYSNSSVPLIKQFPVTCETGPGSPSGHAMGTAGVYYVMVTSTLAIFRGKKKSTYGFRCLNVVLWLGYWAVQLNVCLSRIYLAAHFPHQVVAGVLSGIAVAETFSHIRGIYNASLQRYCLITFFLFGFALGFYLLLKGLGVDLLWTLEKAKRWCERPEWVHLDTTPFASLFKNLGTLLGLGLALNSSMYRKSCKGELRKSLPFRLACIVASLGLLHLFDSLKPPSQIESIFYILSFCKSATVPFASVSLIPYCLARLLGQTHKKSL
Put plainly: phosphate release from glucose 6-phosphate in isolated rat liver microsomes; […] inhibition at […]. A general note: Liver microsomes are vesicles of endoplasmic reticulum, rich in cytochrome P450 enzymes.

On to `COc1cc2c(cc1O)C[C@H]1c3c(cc(O)c(OC)c3-2)CCN1C` [boldine, 1,10-dimethoxy-2,9-dihydroxy aporphine], for which the figures for the inhibition at 200 µM in test [1], in test [2] and in test [3] were 42%, 49% and 35%, respectively.

A word on the inhibition: it is how much of the control response was suppressed.

The record behind these values is PMC10089784, “Inhibition of Gluconeogenesis by Boldine in the Perfused Liver: Therapeutical Implication for Glycemic Control” (International Journal of Hepatology, 2023).
